Where a SMILES comes first, the peptide text is derived from it. [ ]: non-standard residue; d: D form. The star is where a group is joined. Palmitoyl = CCCCCCCCCCCCCCCC(=O)*; Myristoyl = CCCCCCCCCCCCCC(=O)*; Nle = CCCC[C@H](N)C(=O)O; Dap = NC[C@H](N)C(=O)O
Columns and labels:
[1] = target: T1, rat PrRP receptor (GPR10) in RC-4B/C cells (Rattus norvegicus, UniProt Q64121); assay: Competitive binding to rat pituitary RC-4B/C cells; conditions: ^125I-rat PrRP31, RC-4B/C cells
T1 construct: host or cells: RC-4B/C rat pituitary cell line
T1 sequence (Q64121 1-370): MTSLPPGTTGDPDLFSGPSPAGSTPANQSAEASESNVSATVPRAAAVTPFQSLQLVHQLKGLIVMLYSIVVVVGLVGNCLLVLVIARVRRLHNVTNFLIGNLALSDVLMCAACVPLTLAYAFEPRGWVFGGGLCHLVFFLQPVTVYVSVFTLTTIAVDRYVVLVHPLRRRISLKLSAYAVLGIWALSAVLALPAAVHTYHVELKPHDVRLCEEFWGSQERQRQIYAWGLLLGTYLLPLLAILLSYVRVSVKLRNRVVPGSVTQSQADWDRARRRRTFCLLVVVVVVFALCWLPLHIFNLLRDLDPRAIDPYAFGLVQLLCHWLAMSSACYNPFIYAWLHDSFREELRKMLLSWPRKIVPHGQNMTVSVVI

[2] = system: Fos immunoreactivity in Arc, PVN and NTS; assay: Fos immunohistochemistry after SC administration; assay type: in vivo, mouse; conditions: 90 minutes after SC 5 mg/kg, fasted mice
Procedure: For Fos immunohistochemical processing, overnight fasted mice (n=5 mice/group) were treated SC with saline, [Dpr^1]PrRP31, [Dpr(oct)^1]PrRP31, [Dpr(myr)^1]PrRP31 or [Dpr(palm)^1]PrRP31 (dose 5 mg/kg). Ninety minutes after SC injection, the mice were deeply anesthetized with pentobarbital (50 mg/kg, IP) and perfused transcardially with 0.1 M phosphate buffer (PB, pH 7.4) containing 4% paraformaldehyde, 0.1% glutaraldehyde, and 10% picric acid (w/w). Then the brains were removed, postfixed in the same fixative overnight at 4° C., and infiltrated with 30% sucrose in 0.1 M PB for 48 h at 4° C. Before sectioning, the brains were rapidly (20 sec) frozen in cold isopentane (−30/−40° C.) and placed into a Reichert cryocut device adjusted to −16° C. for 1 h. 30 μm coronal sections were cut from the brains and collected as free floating in cold (4° C.) PB. […]
An identical set of mice was used for determination of Fos immunoreactivity in NTS, PVN, and Arc. […] Quantitative assessment was performed from the images captured with a Canon digital camera (PowerShot S40) and Leica DMLS light microscope in a computer screen obtained from 5-6 brain sections per animal. […] The counting of Fos-positive neurons was done under blinded conditions (the counted slides from each animal were analyzed independently and randomly and encoded by other person).

Row | % of PrRP31 binding [1] [%] | Structure (SMILES) | Neural activity, Fos immunoreactivity [2]
1 | 601 | CCCCCCCCCCCCCC(=O)NC[C@H](N)C(=O)N[C@@H](CCCNC(=N)N)C(=O)N[C@@H](C)C(=O)N[C@@H](Cc1c[nH]cn1)C(=O)N[C@@H](CCC(N)=O)C(=O)N[C@@H](Cc1c[nH]cn1)C(=O)N[C@@H](CO)C(=O)N[C@@H](CCCC)C(=O)N[C@@H](CCC(=O)O)C(=O)N[C@H](C(=O)N[C@@H](CCCNC(=N)N)C(=O)N[C@H](C(=O)N1CCC[C@H]1C(=O)N[C@@H](CC(=O)O)C(=O)N[C@H](C(=O)N[C@@H](CC(N)=O)C(=O)N1CCC[C@H]1C(=O)N[C@@H](C)C(=O)N[C@@H](Cc1c[nH]c2ccccc12)C(=O)N[C@@H](Cc1ccc(O)cc1)C(=O)N[C@H](C(=O)NCC(=O)N[C@@H](CCCNC(=N)N)C(=O)NCC(=O)N[C@H](C(=O)N[C@@H](CCCNC(=N)N)C(=O)N1CCC[C@H]1C(=O)N[C@H](C(=O)NCC(=O)N[C@@H](CCCNC(=N)N)C(=O)N[C@@H](Cc1ccccc1)C(N)=O)C(C)C)[C@@H](C)CC)[C@@H](C)O)[C@@H](C)CC)[C@@H](C)O)[C@@H](C)O [Analog 5] (H-[Dap](Myristoyl)RAHQHS[Nle]ETRTPDINPAWYTGRGIRPVGRF-NH2) | significantly increased
2 | 1072 | CCCCCCCCCCCCCCCC(=O)NC[C@H](N)C(=O)N[C@@H](CCCNC(=N)N)C(=O)N[C@@H](C)C(=O)N[C@@H](Cc1c[nH]cn1)C(=O)N[C@@H](CCC(N)=O)C(=O)N[C@@H](Cc1c[nH]cn1)C(=O)N[C@@H](CO)C(=O)N[C@@H](CCCC)C(=O)N[C@@H](CCC(=O)O)C(=O)N[C@H](C(=O)N[C@@H](CCCNC(=N)N)C(=O)N[C@H](C(=O)N1CCC[C@H]1C(=O)N[C@@H](CC(=O)O)C(=O)N[C@H](C(=O)N[C@@H](CC(N)=O)C(=O)N1CCC[C@H]1C(=O)N[C@@H](C)C(=O)N[C@@H](Cc1c[nH]c2ccccc12)C(=O)N[C@@H](Cc1ccc(O)cc1)C(=O)N[C@H](C(=O)NCC(=O)N[C@@H](CCCNC(=N)N)C(=O)NCC(=O)N[C@H](C(=O)N[C@@H](CCCNC(=N)N)C(=O)N1CCC[C@H]1C(=O)N[C@H](C(=O)NCC(=O)N[C@@H](CCCNC(=N)N)C(=O)N[C@@H](Cc1ccccc1)C(N)=O)C(C)C)[C@@H](C)CC)[C@@H](C)O)[C@@H](C)CC)[C@@H](C)O)[C@@H](C)O [Analog 6] (H-[Dap](Palmitoyl)RAHQHS[Nle]ETRTPDINPAWYTGRGIRPVGRF-NH2) | significantly increased
